Laboratory results as given in BindingDB's records for doi:10.1021/np9904410 (Virginia Polytechnic Institute and State University, 2000).

How the values were obtained:
[1] = Inhibition of topoisomerase 1 in Saccharomyces cerevisiae RS321N in glucose medium by microtiter plate assay
[2] = Inhibition of topoisomerase 1 in Saccharomyces cerevisiae RS321N in galactose medium by microtiter plate assay

IC50 [1]	IC50 [2]	Compound
> 201 µM	138 µM	COc1ccc(CCc2cc(OC)c(OC)c(OC)c2)c(O[C@H]2O[C@@H](CO)[C@H](O)[C@@H](O)[C@@H]2O)c1O
5.71 µM	4.81 µM	COc1ccc(/C=C\c2cc(OC)c(OC)c(OC)c2)c(O)c1O [combretastatins A-1]
